# In patent US20080207738A1, “DRUG COMBINATIONS TO TREAT DRUG RESISTANT TUMORS” (priority 2007, published 2008):
# Read-outs that look alike come from different tables or passages of the source.
# Key:
# [1] = system: CLL cells; assay: cells; conditions: Homo sapiens, CLL cell, 72 h, 72 h, CCcompound104 5 μg/ml, CCcompound26 1 μM, alone or combined
# Experimental: Heparinized peripheral-blood samples were obtained from chronic lymphocytic leukemia patients with more than 70% malignant cells after informed consent, in accordance with the Declaration of Helsinki. The blood samples (10-ml) were diluted 1:1 with cold phosphate buffered saline (PBS; 0.135 M NaCl, 2.7 mM KCl, 1.5 mM KH2PO4, 8 mM Na2HPO4 [pH 7.4]) and layered onto Ficoll-Hypaque (8-ml, specific gravity, 1.086; Life Technologies, Grand Island, N.Y.). Then, the blood was centrifuged at 433 g for 20 min, and mononuclear cells were removed from the interphase. Cells were washed twice with cold PBS and after each centrifugation step the pelleted cells were resuspended in 10-ml RPMI 1640 supplemented with 10% fetal bovine serum (inactivated for 30 min at 56° C.). A Coulter channelyzer (Coulter Electronics, Hialeah, Fla.) was used to determine the cell number. Then the number of cells was adjusted to 1×10^7 cells per 1 ml before using them for the experiments.
# (§1) For the determination of relative number of viable cells before and after treatments, in most cases the MTT assay was used. This calorimetric assay is based on the ability of living cells, but not dead cells, to reduce 3-(4, 5-dimethyl thiazol-2-yl)-2, 5-diphenyltetrazolium bromide [Carmichael, J, De Graff, W. G., Gazdar, A. F., Minna, J. D. and Mitchell, J. B. (1987), “Evaluation oftetrazolium-based semiautomated calorimetric assay: Assessment of chemosensitivity testing,” Cancer Res., 47, 936-942]. For this assay, cells were plated in 96-well plates (10,000-30,000 cells in case of cultured cells, 100,000 cells in case of healthy lymphocytes, and 200,000 cells in case of chronic lymphocytic leukemia or non-Hodgkin lymphocytes) in the respective incubation media. After a 24-h resting period, the cells were treated with the test agents and then incubated (in CO2 incubator under humidified atmosphere) for 72 hours (final incubation volume, 150 μl). The MTT assay was performed both with the untreated and treated cell cultures at the conclusion of the incubation. Often, the MTT assay also was performed at the start of treatments to allow assessment of proliferation rates in the control and treated cell cultures. All data presented are the average of 4 incubations (in 4 separate wells) with the same cell population.
# [2] = system: parent L5178 mouse T-cell lymphoma cells; assay: MTT cell viability, parent L5178 cells; conditions: Mus musculus, L5178, 72 h, read-out: Inhibition (%) of viability
# Description: as §1
# Parent L5178 cells were seeded at 10,000 cells per well in 96-well plates and then incubated for 72 hours in the absence or presence of CCcompound104 (1 or 5 μg/ml) and various concentrations of CCcompound26 as indicated in Table 5.
# Epirubicin, like doxorubicin and other antracyclins, is an MDR1 substrate. The goal of this experiment was to use epirubicin as a model compound to determine if in L5178/MDR1 cells CCcompound104 also can enhance the effects of MDR1 substrate anti-cancer agents other than CCcompound26 and other thioxanthene or thioxanthone CC compounds. The parent and MDR1 expressing cells were seeded at 30,000 cells per well in 96-well microplates and after a 24-h resting period treated with increasing concentrations of epirubicin n in the absence or presence of 5 μg/ml of CCcompound104 for 72 hours.
# [3] = system: CaOV-3 human ovarian cancer cell line; assay: Cell viability, CaOV-3 cells; conditions: Caov-3, read-out: decrease in viability / inhibition
# Description: For the determination of relative number of viable cells before and after treatments, in most cases the MTT assay was used. This calorimetric assay is based on the ability of living cells, but not dead cells, to reduce 3-(4, 5-dimethyl thiazol-2-yl)-2, 5-diphenyltetrazolium bromide [Carmichael, J, De Graff, W. G., Gazdar, A. F., Minna, J. D. and Mitchell, J. B. (1987), “Evaluation oftetrazolium-based semiautomated calorimetric assay: Assessment of chemosensitivity testing,” Cancer Res., 47, 936-942]. For this assay, cells were plated in 96-well plates (10,000-30,000 cells in case of cultured cells, 100,000 cells in case of healthy lymphocytes, and 200,000 cells in case of chronic lymphocytic leukemia or non-Hodgkin lymphocytes) in the respective incubation media. After a 24-h resting period, the cells were treated with the test agents and then incubated (in CO2 incubator under humidified atmosphere) for 72 hours (final incubation volume, 150 μl). The MTT assay was performed both with the untreated and treated cell cultures at the conclusion of the incubation. Often, the MTT assay also was performed at the start of treatments to allow assessment of proliferation rates in the control and treated cell cultures. All data presented are the average of 4 incubations (in 4 separate wells) with the same cell population. […]
# [4] = in vitro; conditions: human, decrease of viability of healthy lymphocytes
# Description: as §1
# Peripheral lymphocytes are known to be very sensitive to chemotherapy and this sensitivity often limits the dose of chemotherapy that can be employed. In this series of experiments, the combined effects of CCcompound104 alone or in combination with CCcompound26 or CCcompound3 were determined on the viability of peripheral lymphocytes to establish doses that reduce cell viability less than 50%. As in previous experiments, the treatments were performed for 72 hours.
# [5] = system: MCF-7/ADR cells; assay: MTT cell viability, MCF-7/ADR cells; format: cell-based, human; conditions: 72 h; CCcompound104 5 μg/ml, EA 60 μM, CCcompound26/CCcompound3/CCcompound19 50 μM, alone or combined
# Experimental: MCF/ADR cells were selected by incubating the parent MCF-7 with toxic concentrations (up to 10 μM) of adriamycin (doxorubicin). The selected drug resistant cells express both MDR1 and MRP1 among other molecular alterations as reviewed earlier [Kiss, Z., Tomono, M. and Anderson, W. B. (1994), “Phorbol ester selectively stimulates the phospholipase D-mediated hydrolysis of phosphatidylethanolamine in multidrug-resistant MCF-7 human breast carcinoma cells,” Biochem. J., 302, 649-654]. […] Ethacrynic acid (EA) alone, used at 60 μM concentration, decreased cell viability by about 24%, while CCcompound104 and EA in combination had 70% inhibitory effects (Table 7). In this cell line CCcompound104 and EA decreased cell viability synergistically.
# [6] = Solubility in water; format: physicochemical
# Description: In one embodiment, CCcompound104, CCcompound26 and EA may be administered orally. The two CC compounds are water-soluble, while EA is first dissolved in absolute ethanol and diluted in water or a suitable physiologically compatible liquid solvent. In one embodiment of the invention, the CC compounds and EA are in the form of a tablet, gel capsule, a liquid, or the like. In each case, the compounds are mixed with one or more carriers chosen by one having ordinary skill in the art to best suit the goal of treatment. In addition to the active compounds, the tablet or gel may contain any component that is presently used in the pharmaceutical field to ensure firmness, stability, solubility and appropriate taste. Any additional component of the tablet or gel will be chemically inert; i.e., it will not participate in a chemical reaction with the active compounds or the other additives. Each compound may be prepared for oral consumption separately, or the tablet, gel capsule or liquid may contain any of the two components or all three components. Tablets containing 25 mg or 50 mg of EA can be purchased from Merck.
smiles,measurement,setting,value
"C=CC[N+](CC)(CC)CC/C=C1/c2ccccc2Sc2ccc(C)cc21.[Br-] [CCcompound26, N,N-Diethyl-N-allyl-3-(2-methyl-9H-thioxanthen-9-ylidene)-propan-1-aminiumbromide]",cytotoxicity at 1 µM,"[1]; read-out: Inhibition (%) of viability, CLL patient 1",3.5%
same,cytotoxicity at 1 µM,"[1]; read-out: Inhibition (%) of viability, CLL patient 2",15.8%
same,cytotoxicity at 1 µM,"[1]; read-out: Inhibition (%) of viability, CLL patient 3",66.6%
same,cytotoxicity at 1 µM,"[1]; read-out: Inhibition (%) of viability, CLL patient 4",46.2%
same,cytotoxicity at 1 µM,"[1]; read-out: Inhibition (%) of viability, CLL patient 5",10.8%
same,cytotoxicity at 1 µM,"[1]; read-out: Inhibition (%) of viability, CLL patient 6",20.9%
same,cytotoxicity at 1 µM,"[1]; read-out: Inhibition (%) of viability, CLL patient 7",1.8%
same,cytotoxicity at 1 µM,"[1]; read-out: Inhibition (%) of viability, CLL patient 8",9%
same,cytotoxicity at 1 µM,"[1]; read-out: Inhibition (%) of viability, CLL patient 9",9.2%
same,cytotoxicity at 1 µM,"[1]; read-out: Inhibition (%) of viability, CLL patient 10",40.7%
same,cytotoxicity at 1 µM,"[1]; read-out: Inhibition (%) of viability, CLL patient 11",48.1%
same,cytotoxicity at 1 µM,"[1]; read-out: Inhibition (%) of viability, CLL patient 12",30.4%
same,cytotoxicity at 1 µM,"[1]; read-out: Inhibition (%) of viability, CLL patient 13",42.8%
same,cytotoxicity at 1 µM,"[1]; read-out: Inhibition (%) of viability, CLL patient 14",72.7%
same,cytotoxicity at 1 µM,"[1]; read-out: Inhibition (%) of viability, CLL patient 15",1.6%
same,cytotoxicity at 1 µM,"[1]; read-out: Inhibition (%) of viability, CLL patient 16",50%
same,cytotoxicity at 1 µM,"[1]; read-out: Inhibition (%) of viability, CLL patient 19",22.5%
same,cytotoxicity at 1 µM,"[1]; read-out: Inhibition (%) of viability, CLL patient 20",0%
same,cytotoxicity at 1.56 µM,[2],55%
same,cytotoxicity at 3.12 µM,[2],68%
same,cytotoxicity at 6.25 µM,[2],80%
same,cytotoxicity at 12.5 µM,[3],< 15%
same,cytotoxicity at 25 µM,[3],< 45%
same,"cytotoxicity at 72 h, 50 μM",[4],100%
same,"cytotoxicity at 72 h, 1 μM",[4]; over 4 lymphocyte preparations,3 to 13%
same,Inhibition (%) of viability,[5],24.3%
same,solubility in water,[6],water-soluble
